system: HCV replicon; experiment: HCV replicon replication assay (NPT ELISA) in Huh-7 replicon-containing cells; type: cell-based; settings: Hepatitis C virus, 72 h; HCV replicon in Huh-7 cells, three days incubation; read-out: EC50
Method in brief: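 Replication was scored by capture ELISA of neomycin phosphotransferase, whose level tracks replicon replication, after graded compound treatment. The cells were Huh-7 harbouring an HCV-IRES/neo/EMCV-IRES/NS3–NS5B/3′-NTR replicon, plated at 6000-7500 cells/well and dosed 24 h later at 60-70% confluence; interferon alpha was the positive control.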

Row | Structure (SMILES) | EC50
1 | C=C[C@@H]1C[C@]1(NC(=O)[C@@H]1C[C@@H](Oc2nc(-c3ccccn3)nc3cc(OC)ccc23)CN1C(=O)[C@@H](CC(=O)N1CCCCC1)C(C)(C)C)C(=O)NS(=O)(=O)C1CC1 [Compound 144, (2S,4R)-1-((S)-2-tert-butyl-4-oxo-4-(piperidin-1-yl)butanoyl)-N-((1R,2S)-1-(cyclo-propylsulfonyl-carbamoyl)-2-vinyl-cyclopropyl)-4-(7-methoxy-2-(pyridin-2-yl)quinazolin-4-yloxy)pyrrolidine-2-carboxamide] | < 1 µM
2 | C=C[C@@H]1C[C@]1(NC(=O)[C@@H]1C[C@@H](Oc2cc(-c3ccccc3)nc3cc(OC)ccc23)CN1C(=O)[C@@H](CC(=O)N1CCCCC1)C(C)(C)C)C(=O)NS(=O)(=O)C1(CC)CC1 [Compound 145, (2S,4R)-1-((S)-2-tert-butyl-4-oxo-4-(piperidin-1-yl)butanoyl)-N-((1R,2S)-1-(1-ethylcyclopropyl-sulfonylcarbamoyl)-2-vinylcyclopropyl)-4-(7-methoxy-2-phenylquinolin-4-yloxy)pyrrolidine-2-carboxamide] | < 1 µM
3 | C=C[C@@H]1C[C@]1(NC(=O)[C@@H]1C[C@@H](Oc2cc(-c3ccccc3)nc3cc(OC)ccc23)CN1C(=O)[C@@H](CC(=O)N1CCCCC1)C(C)(C)C)C(=O)NS(=O)(=O)C1(CCC)CC1 [Compound 146, (2S,4R)-1-((S)-2-tert-butyl-4-oxo-4-(piperidin-1-yl)butanoyl)-4-(7-methoxy-2-phenylquinolin-4-yloxy)-N-((1R,2S)-1-(1-propylcyclo-propylsulfonyl-carbamoyl)-2-vinyl-cyclopropyl)pyr-rolidine-2-carboxamide] | < 1 µM
4 | C=C[C@@H]1C[C@]1(NC(=O)[C@@H]1C[C@@H](Oc2cc(-c3ccccc3)nc3cc(OC)ccc23)CN1C(=O)[C@@H](CC(=O)N1CCCCC1)C(C)(C)C)C(=O)NS(=O)(=O)C1(Cc2ccccc2)CC1 [Compound 147, (2S,4R)-N-((1R,2S)-1-(1-benzylcyclo-propylsulfonyl-carbamoyl)-2-vinyl-cyclopropyl)-1-((S)-2-tert-butyl-4-oxo-4-(piperidin-1-yl)butanoyl)-4-(7-methoxy-2-phenylquinolin-4-yloxy)pyrrolidine-2-carboxamide] | 1 to 10 µM
5 | C=C[C@@H]1C[C@]1(NC(=O)[C@@H]1C[C@@H](Oc2cc(-c3ccccn3)c3ccc(OC)c(Cl)c3n2)CN1C(=O)[C@@H](CC(=O)N1CCCCC1)C(C)(C)C)C(=O)NS(=O)(=O)C1CC1 [Compound 148, (2S,4R)-1-((S)-2-tert-butyl-4-oxo-4-(piperidin-1-yl)butanoyl)-4-(8-chloro-7-methoxy-4-(pyridin-2-yl)quinolin-2-yloxy)-N-((1R,2S)-1-(cyclopropyl-sulfonylcarbamoyl)-2-vinyl-cyclopropyl)pyr-rolidine-2-carboxamide] | 1 to 10 µM
6 | CC[C@@H]1C[C@]1(NC(=O)[C@@H]1C[C@@H](Oc2cc(-c3ccccc3)nc3cc(OC)ccc23)CN1C(=O)[C@@H](CC(=O)N1CCCCC1)C(C)(C)C)C(=O)NS(=O)(=O)C1CC1 [Compound 149, (2S,4R)-1-((S)-2-tert-butyl-4-oxo-4-(piperidin-1-yl)butanoyl)-N-((1R,2R)-1-(cyclo-propylsulfonyl-carbamoyl)-2-ethylcyclopropyl)-4-(7-methoxy-2-phenylquinolin-4-yloxy)pyrrolidine-2-carboxamide] | < 1 µM
7 | C=C[C@@H]1C[C@]1(NC(=O)[C@@H]1C[C@@H](Oc2cc(-c3ccccn3)c3ccc4c(c3n2)CCO4)CN1C(=O)[C@@H](CC(=O)N1CCCCC1)C(C)(C)C)C(=O)NS(=O)(=O)C1CC1 [Compound 150, (2S,4R)-1-((S)-2-tert-butyl-4-oxo-4-(piperidin-1-yl)butanoyl)-N-((1R,2S)-1-(cyclo-propylsulfonyl-carbamoyl)-2-vinylcyclopropyl)-4-(4-(pyridin-2-yl)-8,9-dihydrofuro[2,3-h]quinolin-2-yloxy)pyrrolidine-2-carboxamide] | < 1 µM
8 | C=CCC1(S(=O)(=O)NC(=O)[C@@]2(NC(=O)[C@@H]3C[C@@H](Oc4cc(-c5ccccc5)nc5cc(OC)ccc45)CN3C(=O)[C@@H](CC(=O)N3CCCCC3)C(C)(C)C)C[C@H]2C=C)CC1 [Compound 151] | < 1 µM
9 | C=C[C@@H]1C[C@]1(NC(=O)[C@@H]1C[C@@H](Oc2cc(-c3ccccn3)nc3c4c(ccc23)OCC4)CN1C(=O)[C@@H](CC(=O)N1CCCCC1)C(C)(C)C)C(=O)NS(=O)(=O)C1CC1 [Compound 152, (2S,4R)-1-((S)-2-tert-butyl-4-oxo-4-(piperidin-1-yl)butanoyl)-N-((1R,2S)-1-(cyclo-propylsulfonyl-carbamoyl)-2-vinylcyclopropyl)-4-(2-(pyridin-2-yl)-8,9-dihydrofuro[2,3-h]quinolin-4-yloxy)pyrrolidine-2-carboxamide] | < 1 µM
10 | C=C[C@@H]1C[C@]1(NC(=O)[C@@H]1C[C@@H](Oc2cc(-c3ccccn3)nc3c4c(ccc23)OCC4)CN1C(=O)[C@@H](CC(=O)N1CCOCC1)C(C)(C)C)C(=O)NS(=O)(=O)C1CC1 [Compound 153, (2S,4R)-1-((S)-2-tert-butyl-4-morpholino-4-oxobutanoyl)-N-((1R,2S)-1-(cyclo-propylsulfonyl-carbamoyl)-2-vinylcyclopropyl)-4-(2-(pyridin-2-yl)-8,9-dihydrofuro[2,3-h]quinolin-4-yloxy)pyrrolidine-2-carboxamide] | < 1 µM
11 | C=C[C@@H]1C[C@]1(NC(=O)[C@@H]1C[C@@H](OC(=O)N2c3ccccc3Oc3ccccc32)CN1C(=O)[C@@H](CC(=O)N1CCCCC1)C(C)(C)C)C(=O)NS(=O)(=O)C1CC1 [Compound 154, (3R,5S)-1-((S)-2-tert-butyl-4-oxo-4-(piperidin-1-yl)butanoyl)-5-((1R,2S)-1-(cyclo-propylsulfonyl-carbamoyl)-2-vinyl-cyclopropyl-carbamoyl)pyrrolidin-3-yl 10H-phenoxazine-10-carboxylate] | 1 to 10 µM
12 | C=C[C@@H]1C[C@]1(NC(=O)[C@@H]1C[C@@H](OC(=O)n2c3ccc(Cl)cc3c3cc(Cl)ccc32)CN1C(=O)[C@@H](CC(=O)N1CCCCC1)C(C)(C)C)C(=O)NS(=O)(=O)C1CC1 [Compound 155, (3R,5S)-1-((S)-2-tert-butyl-4-oxo-4-(piperidin-1-yl)butanoyl)-5-((1R,2S)-1-(cyclo-propylsulfonyl-carbamoyl)-2-vinyl-cyclopropyl-carbamoyl)pyrrolidin-3-yl 3,6-dichloro-9H-carbazole-9-carboxylate] | < 1 µM
13 | C=C[C@@H]1C[C@]1(NC(=O)[C@@H]1C[C@@H](Oc2cc(-c3ccccc3)nc3cc(OC)ccc23)CN1C(=O)[C@@H](CC(=O)N1CCCCC1)C(C)(C)C)C(=O)NS(=O)(=O)C1(Cl)CC1 [Compound 158, (2S,4R)-1-((S)-2-tert-butyl-4-oxo-4-(piperidin-1-yl)butanoyl)-N-((1R,2S)-1-(1-chlorocyclopropyl-sulfonyl-carbamoyl)-2-vinylcyclopropyl)-4-(7-methoxy-2-phenylquinolin-4-yloxy)pyrrolidine-2-carboxamide] | < 1 µM
14 | C=CC1C[C@]1(NC(=O)[C@@H]1C[C@@H](Oc2cc(-c3ccccc3)nc3cc(OC)ccc23)CN1C(=O)[C@@H](CC(=O)N1CCCC(C(=O)N(CC)CC)C1)C(C)(C)C)C(=O)NS(=O)(=O)C1CC1 (stereo partly drawn) [Compound 159, 1-((S)-3-((2S,4R)-2-((1R,2S)-1-(cyclo-propylsulfonyl-carbamoyl)-2-vinyl-cyclopropyl-carbamoyl)-4-(7-methoxy-2-phenylquinolin-4-yloxy)pyrrolidine-1-carbonyl)-4,4-dimethylpentanoyl)-N,N-diethylpiper-idine-3-carboxamide] | < 1 µM
15 | C=CC1C[C@]1(NC(=O)[C@@H]1C[C@@H](Oc2cc(-c3ccccc3)nc3cc(OC)ccc23)CN1C(=O)[C@@H](CC(=O)N1CCCC(C(=O)OCC)C1)C(C)(C)C)C(=O)NS(=O)(=O)C1CC1 (stereo partly drawn) [Compound 160, ethyl 1-((S)-3-((2S,4R)-2-((1R,2S)-1-(cyclopropyl-sulfonylcarbamoyl)-2-vinylcyclopropyl-carbamoyl)-4-(7-methoxy-2-phenylquinolin-4-yloxy)pyrrolidine-1-carbonyl)-4,4-dime-thylpentanoyl)piper-idine-3-carboxylate] | < 1 µM
16 | C=C[C@@H]1C[C@]1(NC(=O)[C@@H]1C[C@@H](Oc2cc(-c3ccccc3)nc3cc(OC)ccc23)CN1C(=O)[C@@H](CC(=O)N1CCC(N(C)C(=O)OC(C)(C)C)C1)C(C)(C)C)C(=O)NS(=O)(=O)C1CC1 (stereo partly drawn) [Compound 161, tert-butyl 1-((S)-3-((2S,4R)-2-((1R,2S)-1-(cyclopropyl-sulfonylcarbamoyl)-2-vinylcyclopropyl-carbamoyl)-4-(7-methoxy-2-phenylquinolin-4-yloxy)pyrrolidine-1-carbonyl)-4,4-dimethyl-pentanoyl)pyrrolidin-3-yl(methyl)carbamate] | < 1 µM
17 | C=CC1C[C@]1(NC(=O)[C@@H]1C[C@@H](Oc2cc(-c3ccccc3)nc3cc(OC)ccc23)CN1C(=O)[C@@H](CC(=O)N1CCCC(C(F)(F)F)C1)C(C)(C)C)C(=O)NS(=O)(=O)C1CC1 (stereo partly drawn) [Compound 162, (2S,4R)-1-((2S)-2-tert-butyl-4-oxo-4-(3-(trifluoromethyl)pi-peridin-1-yl)butanoyl)-N-((1R,2S)-1-(cyclopropylsulfonyl-carbamoyl)-2-vinylcyclopropyl)-4-(7-methoxy-2-phenylquinolin-4-yloxy)pyrrolidine-2-carboxamide] | < 1 µM
18 | C=CC1C[C@]1(NC(=O)[C@@H]1C[C@@H](Oc2cc(-c3ccccc3)nc3cc(OC)ccc23)CN1C(=O)[C@@H](CC(=O)N1C(C)CCCC1C)C(C)(C)C)C(=O)NS(=O)(=O)C1CC1 (stereo partly drawn) [Compound 163] | < 1 µM

— patent US9133115B2 (ACHILLION PHARMACEUTICALS, INC., priority 2008, dated 2015)
